{"source": "patent US8324346B2", "about": "“Bioactive keratin peptides” (Keraplast Technologies, Ltd., priority 2002, dated 2012)", "key": {"human dermal fibroblasts": {"test_system": "human dermal fibroblasts", "test": "Biological effect of peptide compositions on human dermal fibroblasts (cell proliferation)", "type": "cell-based", "conditions": "for increase in cell proliferation: human dermal fibroblasts, positive control", "protocol": "A second set of studies was performed that tested the biological effect of the peptide compositions on human dermal fibroblasts after three and five days of exposure. After three days of exposure, the peptide composition produced a greater than 25% increase in cell proliferation at concentrations between 0.5 and 10 ug/ml. The positive control, […] fibroblast growth factor (bFGF25), produced a greater than 30% increase in cell proliferation. After five days of exposure, peptide compositions at a concentration of 0.5 to 10 ug/ml produced increases in cell proliferation of between 9% and 12%. The positive control produced a greater than 13% increase.\nRelated in vitro tests confirmed that the mitogenic effect of the peptide compositions on dermal fibroblasts increased with concentration up to nearly 150% of the negative control at 1000 ug/ml concentration. Compositions with greater purity increased the mitogenic effect to over 1000% of the negative control. The positive control in these studies, platelet derived growth factor (PDGF), increased the mitogenic effect to nearly 700% of the negative control."}, "keratinocytes": {"test_system": "keratinocytes", "test": "Mitogenic effects of crude peptide compositions on keratinocytes (OD 530 nm)", "type": "cell-based, human", "conditions": "5 days of exposure, positive control"}, "[1]": {"test_system": "Normal human adult dermal fibroblasts", "test": "Cell Titer96 Cell Proliferation Assay: mitogenic effects of synthesized peptides on human fibroblasts in culture for 5 days", "type": "cell-based", "conditions": "normalized to baseline controls", "protocol": "Normal human adult dermal fibroblasts were cultured in fibroblast growth medium (Clonetics™/BioWhittaker, San Diego, Calif., USA). Passage 5 cells were seeded into wells of 96 well plates at 5×10^3 cells/well. Test peptide solutions were prepared at approximately 1.5 mg/ml in sterile water. Small volumes of 0.1N NH4OH were added dropwise to peptide the peptide solutions to completely solubilize the peptides as recommended by the manufacturer (New England Peptide, Inc., Fitchburg, Miss., USA). The volume of NH4OH added to the solution was recorded and used to adjust beginning concentration. Solutions were serially diluted in fibroblast culture medium from 100-0.001 μg/ml, then added to the cells and cultured for 5 days. At day 3, test and control media were removed from each well by vacuum and replaced with fresh test or control solutions. Samples were evaluated in 4 replicate wells. Note in each plate, wells were selected at random to be used as baseline controls to account for any variation in cell seeding between plates. After 5 days, cell proliferation was assessed spectrophotometrically using the Cell Titer96® Cell Proliferation Assay (Promega Corp., Madison, Wis., USA). Absorbance values were normalized to baseline controls and expressed as percent increased (positive values) or decreased (negative values) proliferation."}}, "data": [{"substance": "bFGF25: bovine-derived fibroblast growth factor (bFGF25), positive control", "values": [{"measurement": "increase in cell proliferation", "setting": "human dermal fibroblasts; five days of exposure", "result": "greater than 13%"}, {"measurement": "increase in cell proliferation", "setting": "human dermal fibroblasts; three days of exposure", "result": "greater than 30%"}]}, {"substance": "EGF25: epidermal growth factor (EGF25), positive control in the keratinocyte studies", "values": [{"measurement": "increase in keratinocyte proliferation", "setting": "keratinocytes", "result": "greater than 25%"}]}, {"substance": "VDTAPTV (Consensus peptide) [H2N-VDTAPTV-OH]", "values": [{"measurement": "percent increased (positive values) or decreased (negative values) proliferation, concentration 0.001 ug/mL", "setting": "[1]", "result": 10.4, "unit": "%"}, {"measurement": "percent increased (positive values) or decreased (negative values) proliferation, concentration 0.01 ug/mL", "setting": "[1]", "result": 7.9, "unit": "%"}, {"measurement": "percent increased (positive values) or decreased (negative values) proliferation, concentration 0.1 ug/mL", "setting": "[1]", "result": 1.2, "unit": "%"}, {"measurement": "percent increased (positive values) or decreased (negative values) proliferation, concentration 1 ug/mL", "setting": "[1]", "result": 0.7, "unit": "%"}, {"measurement": "percent increased (positive values) or decreased (negative values) proliferation, concentration 10 ug/mL", "setting": "[1]", "result": 5.5, "unit": "%"}, {"measurement": "percent increased (positive values) or decreased (negative values) proliferation, concentration 100 ug/mL", "setting": "[1]", "result": "−5.5", "unit": "%"}]}, {"substance": "PDGF", "values": [{"measurement": "mitogenic effect, % of the negative control", "setting": "human dermal fibroblasts; dermal fibroblasts, concentration not given", "result": "~700", "unit": "%"}]}, {"substance": "DLNRVL (Consensus peptide) [H2N-DLNRVL-OH]", "values": [{"measurement": "percent increased (positive values) or decreased (negative values) proliferation, concentration 0.001 ug/mL", "setting": "[1]", "result": 14.4, "unit": "%"}, {"measurement": "percent increased (positive values) or decreased (negative values) proliferation, concentration 0.01 ug/mL", "setting": "[1]", "result": 11.5, "unit": "%"}, {"measurement": "percent increased (positive values) or decreased (negative values) proliferation, concentration 0.1 ug/mL", "setting": "[1]", "result": "−0.4", "unit": "%"}, {"measurement": "percent increased (positive values) or decreased (negative values) proliferation, concentration 1 ug/mL", "setting": "[1]", "result": "−2.8", "unit": "%"}, {"measurement": "percent increased (positive values) or decreased (negative values) proliferation, concentration 10 ug/mL", "setting": "[1]", "result": "−3.5", "unit": "%"}, {"measurement": "percent increased (positive values) or decreased (negative values) proliferation, concentration 100 ug/mL", "setting": "[1]", "result": "−1.2", "unit": "%"}]}, {"substance": "LNVEV (Consensus peptide) [H2N-LNVEV-OH]", "values": [{"measurement": "percent increased (positive values) or decreased (negative values) proliferation, concentration 0.001 ug/mL", "setting": "[1]", "result": "−1.0", "unit": "%"}, {"measurement": "percent increased (positive values) or decreased (negative values) proliferation, concentration 0.01 ug/mL", "setting": "[1]", "result": 0.9, "unit": "%"}, {"measurement": "percent increased (positive values) or decreased (negative values) proliferation, concentration 0.1 ug/mL", "setting": "[1]", "result": "−10.8", "unit": "%"}, {"measurement": "percent increased (positive values) or decreased (negative values) proliferation, concentration 1 ug/mL", "setting": "[1]", "result": "−11.4", "unit": "%"}, {"measurement": "percent increased (positive values) or decreased (negative values) proliferation, concentration 10 ug/mL", "setting": "[1]", "result": 15.9, "unit": "%"}, {"measurement": "percent increased (positive values) or decreased (negative values) proliferation, concentration 100 ug/mL", "setting": "[1]", "result": 13.9, "unit": "%"}]}]}
